Assay results reported in patent US20230138851A1, “NOVEL ALKYNE DERIVATIVES” (CARNA BIOSCIENCES, INC., priority 2020, published 2023).

Experiments:
Assay type in all cases: biochemical
DYRK1B = target: T1, DYRK1B (Homo sapiens, UniProt Q9Y463); assay: Inhibition test on activity of DYRK family, mobility shift assay (MSA), DYRK1B; design: Inhibitory Activity 1b (IC50 against DYRK1B): scale not given here; details: ATP 200 μM, FITC-labeled DYRKtide peptide substrate, room temperature 1 hour
T1 construct: purchased Carna Biosciences, Inc. 04-131
T1 sequence (Q9Y463 whole entry): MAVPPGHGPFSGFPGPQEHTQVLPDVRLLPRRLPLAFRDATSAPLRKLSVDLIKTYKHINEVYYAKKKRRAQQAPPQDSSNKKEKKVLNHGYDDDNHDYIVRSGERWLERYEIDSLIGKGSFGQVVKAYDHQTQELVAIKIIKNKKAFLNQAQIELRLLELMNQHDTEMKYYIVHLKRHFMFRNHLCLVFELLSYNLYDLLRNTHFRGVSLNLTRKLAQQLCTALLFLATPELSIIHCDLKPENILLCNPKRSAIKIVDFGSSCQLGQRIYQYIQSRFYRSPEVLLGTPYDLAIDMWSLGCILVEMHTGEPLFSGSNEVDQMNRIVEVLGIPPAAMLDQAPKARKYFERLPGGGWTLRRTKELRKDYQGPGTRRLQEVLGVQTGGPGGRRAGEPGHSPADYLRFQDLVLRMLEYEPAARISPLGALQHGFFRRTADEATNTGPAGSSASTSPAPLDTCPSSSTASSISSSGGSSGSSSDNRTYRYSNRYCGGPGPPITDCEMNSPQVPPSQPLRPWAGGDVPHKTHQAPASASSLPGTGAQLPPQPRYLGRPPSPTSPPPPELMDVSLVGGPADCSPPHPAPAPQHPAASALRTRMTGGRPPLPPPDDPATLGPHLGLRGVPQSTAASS
Description: [Inhibition Test on Activity of DYRK Family (DYRK1A, DYRK1B, DYRK2, and […])]
(Method for Measuring Kinase Activity)
The kinase activity was measured by mobility shift assay (MSA) method using QuickScout Screening Assist™ MSA (commercially available kit manufactured by Carna Biosciences, Inc.). The substrate of the kinase reaction used was an FITC-labeled DYRKtide peptide included in the kit. An assay buffer [20 mM HEPES, 0.01% Triton X-100™, 2 mM dithiothreitol, pH 7.5] was used to create a substrate mixture solution with a substrate (4 μM), MgCl2 (20 mM), and ATP (DYRK1A: 100 μM; DYRK1B: 200 μM; DYRK2: 40 μM; and DYRK3: 20 μM). In addition, kinases (DYRK1A: manufactured by Carna Biosciences, Inc., Cat. No. 04-130; DYRK1B: manufactured by Carna Biosciences, Inc., Cat. No. 04-131; DYRK2; manufactured by Carna Biosciences, Inc., Cat. No. 04-132; and DYRK3; manufactured by Carna Biosciences, Inc., Cat. No. 04-133) were diluted with the assay buffer to prepare enzyme solutions (DYRK1A: 0.2 ng/μL; DYRK1B: 0.08 ng/μL; DYRK2: 0.04 ng/μL; and DYRK3: 0.25 ng/μL). The 10 mM solution of the test compound in DMSO was further diluted with DMSO to 10 levels of the concentration (0.00003 mM, 0.0001 mM, 0.0003 mM, 0.001 mM, 0.003 mM, 0.01 mM, 0.03 mM, 0.1 mM, 0.3 mM, and 1 mM), each of which was subjected to 25-fold dilution with the assay buffer to obtain a drug solution (4% DMSO solution). 5 μL of the drug solution or a control solution (4% DMSO-assay buffer), 5 μL of the substrate mixture solution, and 10 μL of the enzyme solution were mixed in the wells of a polypropylene 384-well plate and allowed to react at room temperature for 1 hour, and then the reaction was quenched by adding 60 μL of the termination buffer included in the kit. Subsequently, the quantities of the substrates (S) and the phosphorylated substrate (P) in the reaction solution were measured using LabChip EZ Reader II system (manufactured by Caliper Life Sciences) according to the protocol of the assay kit.
(Method for Evaluating Inhibitory Activity)
The heights of the peaks of the “substrate” and the “phosphorylated substrate” were expressed as S and P, respectively, and a blank containing the assay buffer instead of the enzyme solution was also measured.
The inhibition rate (%) of the test compound was calculated according to the following equation:
Inhibition rate (%)=(1−(C−A)/(B−A))×100
wherein, A, B, and C represent P/(P+S) of the blank well, P/(P+S) of the control solution well, and P/(P+S) of the compound-containing well, respectively.
The IC50 value was calculated via a regression analysis of the inhibition rate and the test compound concentration (logarithmic value).
The inhibiting activities of representative compounds of the present invention are shown against DYRK1A, DYRK1B, DYRK2, and DYRK3 in Tables 7 and 8. The kinase activity inhibitory effect was indicated with the mark *** at an IC50 value of less than 0.01 μM; the mark ** at 0.01 μM or more and less than 0.1 μM; the mark * at 0.1 μM or more and less than 1 μM; and the mark — at 1 μM or more (N.D. indicates not measured).

DYRK2 = target: T2, DYRK2 (Homo sapiens, UniProt Q92630); assay: Inhibition test on activity of DYRK family, mobility shift assay (MSA), DYRK2; details: ATP 40 μM, FITC-labeled DYRKtide peptide substrate, room temperature 1 hour; for IC50: read-out: Inhibitory Activity 2 (IC50 against DYRK2)
T2 construct: purchased Carna Biosciences, Inc. 04-132
T2 sequence (Q92630 1-601): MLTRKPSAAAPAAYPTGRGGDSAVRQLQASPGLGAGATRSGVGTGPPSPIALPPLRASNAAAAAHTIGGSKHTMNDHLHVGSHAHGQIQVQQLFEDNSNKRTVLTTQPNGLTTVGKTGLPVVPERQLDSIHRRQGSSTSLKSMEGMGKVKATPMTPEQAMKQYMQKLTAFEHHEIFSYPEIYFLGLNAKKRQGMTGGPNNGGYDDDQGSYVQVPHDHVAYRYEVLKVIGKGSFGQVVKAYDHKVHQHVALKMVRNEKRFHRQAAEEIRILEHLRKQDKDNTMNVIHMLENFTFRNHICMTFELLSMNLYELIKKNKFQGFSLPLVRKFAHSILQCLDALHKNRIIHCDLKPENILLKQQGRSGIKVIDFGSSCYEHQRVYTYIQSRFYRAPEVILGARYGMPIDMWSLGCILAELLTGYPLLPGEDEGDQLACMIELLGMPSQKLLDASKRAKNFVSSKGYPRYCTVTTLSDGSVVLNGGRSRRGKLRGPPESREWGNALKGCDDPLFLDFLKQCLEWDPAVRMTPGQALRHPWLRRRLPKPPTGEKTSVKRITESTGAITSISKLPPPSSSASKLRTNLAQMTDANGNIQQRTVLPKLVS
Procedure, shortened: (§1)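 FITC-DYRKtide phosphorylation in 20 mM HEPES pH 7.5 with MgCl2; ATP in the substrate mix was 100 μM (DYRK1A), 200 μM (DYRK1B), 40 μM (DYRK2) or 20 μM (DYRK3). Reactions ran 1 h at room temperature; inhibition from P/(P+S) versus blank and DMSO control, IC50 by regression on log concentration.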

DYRK3 = target: T3, DYRK3 (Homo sapiens, UniProt O43781); assay: Inhibition test on activity of DYRK family, mobility shift assay (MSA), DYRK3; details: ATP 20 μM, FITC-labeled DYRKtide peptide substrate, room temperature 1 hour; for IC50: read-out: Inhibitory Activity 3 (IC50 against DYRK3)
T3 construct: purchased Carna Biosciences, Inc. 04-133
T3 sequence (O43781 1-588): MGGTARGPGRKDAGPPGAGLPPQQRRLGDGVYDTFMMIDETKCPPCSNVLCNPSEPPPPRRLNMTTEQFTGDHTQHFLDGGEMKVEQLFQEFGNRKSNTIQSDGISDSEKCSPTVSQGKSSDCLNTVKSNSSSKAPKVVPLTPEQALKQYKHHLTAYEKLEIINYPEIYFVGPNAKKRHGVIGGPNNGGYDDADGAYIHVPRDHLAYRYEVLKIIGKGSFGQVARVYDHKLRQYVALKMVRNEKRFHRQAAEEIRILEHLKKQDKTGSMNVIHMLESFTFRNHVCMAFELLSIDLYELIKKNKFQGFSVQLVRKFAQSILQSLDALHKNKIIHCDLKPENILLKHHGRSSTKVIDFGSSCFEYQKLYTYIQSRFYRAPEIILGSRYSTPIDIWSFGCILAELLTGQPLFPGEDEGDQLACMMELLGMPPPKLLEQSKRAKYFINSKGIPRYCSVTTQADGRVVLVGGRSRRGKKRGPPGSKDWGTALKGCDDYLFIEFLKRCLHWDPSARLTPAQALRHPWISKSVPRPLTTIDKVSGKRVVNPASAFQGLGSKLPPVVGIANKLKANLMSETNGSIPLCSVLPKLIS
Procedure, shortened: as §1

DYRK1A = target: T4, DYRK1A (Homo sapiens, UniProt Q13627); assay: Inhibition test on activity of DYRK family, mobility shift assay (MSA), DYRK1A; details: ATP 100 μM, FITC-labeled DYRKtide peptide substrate, room temperature 1 hour
T4 construct: purchased Carna Biosciences, Inc. 04-130
Procedure, shortened: as §1

SMILES	Inhibitory Activity 1b (IC50 against DYRK1B) (DYRK1B)	IC50 (DYRK2)	Inhibitory Activity 3 (IC50 against DYRK3) (DYRK3)	Inhibitory Activity 1a (IC50 against DYRK1A) (DYRK1A)	Inhibitory Activity 2 (IC50 against DYRK2) (DYRK2)	IC50 (DYRK3)	IC50 (DYRK1B; read-out: Inhibitory Activity 1b (IC50 against DYRK1B))	IC50 (DYRK1A; read-out: Inhibitory Activity 1a (IC50 against DYRK1A))
CC#CC1CNC(=O)N1c1nc2c3c(ccc2s1)OCC3 (racemic) [Example 8, (RS)-1-(7,8-dihydrobenzofuro[4,5-d]thiazol-2-yl)-5-(prop-1-yn-1-yl)imidazolidin-2-one]	* * *	100 to 1000 nM	* *	* * *				
CC#CC1CNC(=O)N1c1nc2c3c(ccc2s1)OCO3 (racemic) [Example 1, (RS)-1-([1,3]dioxolo[4′,5′:5,6]benzo[1,2-d]thiazol-7-yl)-5-(prop-1-yn-1-yl)imidazolidin-2-one]	* * *	100 to 1000 nM	* *	* * *				
CC#C[C@@H]1[C@H](C)NC(=O)N1c1nc2c3c(ccc2s1)OCC3 [Example 5, (4S,5R)-1-(7,8-dihydrobenzofuro[4,5-d]thiazol-2-yl)-4-methyl-5-(prop-1-yn-1-yl)imidazolidin-2-one]	* * *	100 to 1000 nM		* * *		100 to 1000 nM		
CC#CC1CNC(=O)N1c1nc2c(ccc3nccnc32)s1 (racemic) [Example 24, (RS)-5-(prop-1-yn-1-yl)-1-(thiazolo[4,5-f]quinoxalin-2-yl)imidazolidin-2-one]	* * *	100 to 1000 nM		* * *		100 to 1000 nM		
CC#C[C@@H]1CNC(=O)N1c1nc2c3c(ccc2s1)OCO3 [Example 2, (R)-1-([1,3]dioxolo[4′,5′:5,6]benzo[1,2-d]thiazol-7-yl)-5-(1-propyn-1-yl)imidazolidin-2-one]	* * *		* *	* * *	* *			

Other lines, results leading:

Inhibitory Activity 1b (IC50 against DYRK1B) (DYRK1B)	IC50 (DYRK2)	Inhibitory Activity 3 (IC50 against DYRK3) (DYRK3)	Inhibitory Activity 1a (IC50 against DYRK1A) (DYRK1A)	Inhibitory Activity 2 (IC50 against DYRK2) (DYRK2)	IC50 (DYRK3)	IC50 (DYRK1B; read-out: Inhibitory Activity 1b (IC50 against DYRK1B))	IC50 (DYRK1A; read-out: Inhibitory Activity 1a (IC50 against DYRK1A))	SMILES
* * *		* *	* * *	* *				CC#CC1CNC(=O)N1c1nc2c(ccc3ncn(C4CCOCC4)c32)s1 (racemic) [Example 32, (RS)-5-(prop-1-yn-1-yl)-1-[8-(tetrahydro-2H-pyran-4-yl)-8H-imidazo[4′,5′:5,6]benz [1,2-d]thiazol-2-yl]imidazolidin-2-one]
* * *	100 to 1000 nM		* * *		100 to 1000 nM			CC#CC1CNC(=O)N1c1nc2c(ccc3nnn(C)c32)s1 (single isomer, unassigned) [Example 30, 1-(1-methyl-1H-thiazolo[4′,5′:3,4]benz[1,2-d][1,2,3]triazol-7-yl)-5-(prop-1-yn-1-yl)imidazolidin-2-one]
* * *	100 to 1000 nM		* * *		100 to 1000 nM			CC#CC1CNC(=O)N1c1nc2c3c(ccc2s1)OCCN3C (racemic) [Example 25, (RS)-1-(9-methyl-8,9-dihydro-7H-thiazolo[4′,5′;3,4]benz[1,2-b][1,4]oxazin-2-yl)-5-(prop-1-yn-1-yl)imidazolidin-2-one]
	≥ 1000 nM				≥ 1000 nM	≥ 1000 nM	100 to 1000 nM	CC#CC1CNC(=O)N1c1nc2c3c(ccc2s1)OCCN3C(C)=O (racemic) [Example 39, (RS)-1-(9-acetyl-8,9-dihydro-7H-thiazolo[4′,5′:3,4]benz[1,2-b][1,4]oxazin-2-yl)-5-(prop-1-yn-1-yl)imidazolidin-2-one]
* * *	100 to 1000 nM		* * *		100 to 1000 nM			CC#CC1CNC(=O)N1c1nc2c(ccc3ncn(CCO)c32)s1 (racemic) [Example 31, (RS)-1-[8-(2-hydroxyethyl)-8H-imidazo[4′,5′:5,6]benz[1,2-d]thiazol-2-yl]-5-(prop-1-yn-1-yl)imidazolidin-2-one]
* * *	100 to 1000 nM		* * *		100 to 1000 nM			CC#CC1CNC(=O)N1c1nc2c3c(ccc2s1)OCCN3 (racemic) [Example 38, (RS)-1-(8,9-dihydro-7H-thiazolo[4′,5′:3,4]benz[1,2-b][1,4]oxazin-2-yl)-5-(prop-1-yn-1-yl)imidazolidin-2-one]
	≥ 1000 nM		* *		≥ 1000 nM			CC#CC1CNC(=O)N1c1nc2c(ccc3[nH]ncc32)s1 (racemic) [Example 50, (RS)-5-(prop-1-yn-1-yl)-1-(6H-thiazolo[4,5-e]indazol-2-yl)imidazolidin-2-one]
